# Results: patent US9913858B2, “Prevention and treatment of toxicosis” (priority 2013, dated 2018)
# Marks after values point to notes of the source that are not given here.
# Tests used:
# [1] = system: lolitrem B toxicosis (Rye Grass Staggers); experiment: Gait analysis and time to falling; type: in vivo, sheep; conditions: for time to falling: by context untreated, toxin only
# Description: Gait analysis was performed on entry to the trial and at designated time points throughout the trial as described above. To achieve this, animals were moved from their individual pens to an external yard in their cohort groups (five animals, one from each treatment). Animals were then encouraged to move at a run, initially in a group and then individually, for a minimum of three minutes per animal whilst their movement was captured on video and gait observations recorded.
# Once all animals had been analysed the whole cohort was returned to their individual pens. Gait abnormalities such as stumbling, falling or disorientation were noted, including observation of Type 1 or Type 2 gait changes as described in Combs et, al., (2014). Type I movement disorder is defined as an impaired alternating movement (dysdiadochokinesia), bunny-hopping gait and failure to maintain an appropriate direction. Type 2 movement disorder is defined by increasing rigidity of limbs on forced movement resulting finally in tonic fore and hind limb extension with the animal collapsing into sternal or lateral recumbency (Combs, Rendell et at 2014). Scores between those denoted above were considered as a gradation between the stated clinical observations. Analysis of gait was performed using the following scale in Table 2 and a composite score noted for each animal for each day during the end of trial protocol. A total score out of 30 was determined for each animal. The higher the score the greater the locomotory disturbance. Time to falling was determined post trial by analysis of video material,
# Animals that met the entry criteria (severe Type 2 gait abnormality and falling) were submitted to the end-of-trial protocol. […] Animals were subjected to the following tests on days 1 and 3: gait analysis, full neurological examination, venous blood and urine sampling and EMG. Only gait analysis was performed on day 2.
# [2] = system: lolitrem B toxicosis (Rye Grass Staggers); experiment: Electromyography, tremor intensity; type: in vivo, sheep; conditions: lolitrem B intoxicated, EMG
# Description: EMGs were recorded on entry to the trial, entry to the end of trial (Day 1) and date of post mortem (Day 3) using Powerlab™ (ADInstruments, Castle Hill, Australia) and data recorded using LabChart™ software (ADInstruments, Australia). In preparation, the fleece was shorn from an area over the triceps muscle and along brachiocephalicus muscle of the neck. EMG electrodes were attached to the skin using SuperGlue™. Muscle activity was recorded for a minimum of three minutes with the animal standing at rest with a band pass filter set at 100 Hz. Three minute EMG recordings were taken using Ag—AgCl surface electrodes over the triceps muscle on to entry to the trial, on first day of falling (Day 1) and 48 hours post treatment (Day 3). Data analysis was achieved by application of a Fast-Fourier transformation for statistical comparison. Area under the curve was then calculated at frequencies between 5 and 30 Hz to estimate tremor intensity.
# [3] = system: lolitrem B toxicosis (Rye Grass Staggers); experiment: Clinical and neurological signs in sheep fed lolitrem B-containing toxic feed with or without potassium bromide; type: in vivo
# Description: Animals were exposed to a controlled diet containing 0.16 mg/kg body weight (BW) lolitrem B toxin rising to 0.27 mg/kg BW after 21 days exposure to toxic feed. Toxin was delivered as perennial rye grass seed (GA66 AR98, Grasslanz Technology Ltd, NZ) containing very high levels of lolitrem B toxin (11 ppm DM) as a component of the animal's feed intake.
# On entry to the trial, all animals receiving toxic feed were exposed to a diet containing experimental ryegrass seed with a final lolitrem B concentration of 0.08 mg/kg LW, lucerne chaff and molasses 30% w/v for 3 days. After this induction period, the toxin content of the feed was increased to 0.16 mg/kg LW for the duration of the trial. […] Ryegrass seed constituted up to 65% of available Feed on Offer (FOO) by dry weight contributing a metabolisable energy of 12.1 Mj/kg DM.
# At entry to the trial, all animals were subjected to a full clinical examination. Live weight was recorded. Venous blood and urine samples were collected for laboratory. Animals were also subjected to gait analysis, neurological examination including proprioceptive testing, cranial nerve examination and papillary light and menace reflexes. Electromyography (EMG) of tricep and neck muscles was performed. Gait analysis (see below) was repeated at three day intervals until onset of significant clinical signs and/or gait abnormality at which point animals were subjected to gait analysis daily. Gait analysis was recorded on video each occasion.
# General clinical signs were also noted on a daily basis; these included observations of nervousness or agitation, changes in normal placement of body, limb or head position changes in faecal consistency, feeding behaviour or water consumption, observeable tremor of the body or head, eye position (strabismus) and movement (nystagmus), locomotory disturbances, or any other clinical changes worthy of note. Feed and water intake was monitored daily for the duration of the trial. Heart rate, respiration rate at rest and rectal temperature were also monitored daily.
# Prophylactic sheep received a split loading dose of 300 mg/kg on day 1, 120 mg/kg (100 mg LD+20 mg/kg daily maintenance dose) on day 2, 120 mg/kg on day 3 and 20 mg/kg daily for the duration of the trial. An acute treatment dose of 300 mg/kg LW was used for the trial. Both prophylactic and acute treatment doses were envisaged to give serum concentrations of 750 to 1000 μg/ml for the duration of the initial weeks of the trial.
# Group 1—Negative Control: lucerne chaff only;
# Group 2—Positive Control: lucerne chaff containing 0.16 mg/kg LW lolitrem B;
# Prophylactic treatment sheep (Groups 4 & 5) received a split loading dose of 300 mg/kg on day 1 of the trial, 120 mg/kg (100 mg LD 20 mg/kg daily maintenance dose) on day 2, 120 mg/kg on day 3 and 20 mg/kg daily thereafter. Acute therapy sheep were dosed with a single dose of 300 mg/kg on day of falling.
# End of the trial was defined for Groups 2 and 3 as date of falling. Group 1 animals entered the end of trial protocol with their Group 2 counterparts. Group 4 and 5 animals entered the end of trial protocol after 22 days. This end of trial protocol consisted of the following analysis: • On Day 1: animals were subjected to a full clinical examination, gait analysis, urine and blood collection, neurological examination and EMG. • On Day 2: further gait analysis was recorded, • On Day 3: animals were again subjected to full clinical examination, gait analysis, urine and blood collection, neurological examination and EMG as well as live weight recorded prior to necropsy.
# [4] = sheep, Group 3: toxic feed plus single oral 300 mg/kg KBr on day of falling
# [5] = sheep, Group 4: toxic feed plus prophylactic oral KBr (300, 120, 120 then 20 mg/kg daily), 22 days
# [6] = sheep, Group 5: prophylactic oral KBr only, no toxic feed, 22 days
# [7] = sheep, Group 2: toxic feed (lolitrem B 0.16 mg/kg LW), no treatment
smiles,measurement,setting,value
[Br-].[K+] [potassium bromide],"composite gait score, Day 1 (pre-treatment) to Day 2 (24 hours post treatment)","[1]; Group 3 sheep, lolitrem B toxin, oral 300 mg/kg LW potassium bromide, p=0.001",significant reduction
same,time to falling in intoxicated animals,"[1]; intoxicated sheep, oral 300 mg/kg BW potassium bromide on day of falling",significantly improve
same,animals failing to fall when driven to movement for a continuous period of 5 minutes,"[1]; intoxicated sheep, oral 300 mg/kg BW potassium bromide on day of falling, 24 and 48 hours after treatment",8/9
same,animals progressing to falling in the designated 22 days of treatment,"[1]; sheep, prophylactic potassium bromide plus toxic feed (Group 4)",one
same,Day 1: Day 3 tremor intensity ratio,"[2]; Group 3 sheep, acute KBr treatment",0.81
same,"Altered stance, mean number of days to onset (+/−s.e.m.)",[3]; [4],10.22(+/−2.10) days
same,"Altered stance, number of animals affected",[3]; [4],9/9
same,"Fine tremor, mean number of days to onset (+/−s.e.m.)",[3]; [4],12.43(+/−4.82) days
same,"Fine tremor, number of animals affected",[3]; [4],7/9
same,"First clinical signs, mean number of days to onset (+/−s.e.m.)",[3]; [4],8.56(+/−1.94) days
same,"First clinical signs, number of animals affected",[3]; [4],9/9
same,"Major body clonus, mean number of days to onset (+/−s.e.m.)",[3]; [4],11.67(+/−2.88) days
same,"Major body clonus, number of animals affected",[3]; [4],3/9
same,animals showing evidence of mild anxiolysis,"[3]; sheep, Group 4: toxic feed plus prophylactic oral KBr",^aIncludes 4/9 animals showing evidence of mild anxiolysis
same,"Altered stance, mean number of days to onset (+/−s.e.m.)",[3]; [5],8.33(+/−1.22) days
same,"Altered stance, number of animals affected",[3]; [5],9/9
same,"Fine tremor, mean number of days to onset (+/−s.e.m.)",[3]; [5],12.14(+/−4.45) days
same,"Fine tremor, number of animals affected",[3]; [5],7/9
same,"First clinical signs, mean number of days to onset (+/−s.e.m.)",[3]; [5],6.33(+/−1.73) days
same,"First clinical signs, number of animals affected",[3]; [5],9/9^a
same,"Major body clonus, mean number of days to onset (+/−s.e.m.)",[3]; [5],10.67(+/−2.65) days
same,"Major body clonus, number of animals affected",[3]; [5],5/9
same,altered stance reported earlier than in toxin-only counterparts,"[3]; sheep, Group 4 versus Groups 2 and 3",approximately two
same,animals showing evidence of mild anxiolysis,"[3]; sheep, Group 5: prophylactic oral KBr only",^bIncludes 5/9 animals showing evidence of mild anxiolysis
same,"Altered stance, mean number of days to onset (+/−s.e.m.)",[3]; [6],11.0(+/−4.69) days
same,"Altered stance, number of animals affected",[3]; [6],4/9
same,"Fine tremor, mean number of days to onset (+/−s.e.m.)",[3]; [6],11.00(+/−0.0) days
same,"Fine tremor, number of animals affected",[3]; [6],1/9
same,"First clinical signs, mean number of days to onset (+/−s.e.m.)",[3]; [6],10.75(+/−4.46) days
same,"First clinical signs, number of animals affected",[3]; [6],8/9^b
same,"Major body clonus, mean number of days to onset (+/−s.e.m.)",[3]; [6],0 days
same,"Major body clonus, number of animals affected",[3]; [6],0/9
same,range of onset of mild mood changes,"[3]; sheep, potassium bromide at the prophylactic dose",4 to 17 days
CC(C)=C[C@H]1O[C@H]2[C@H]3O[C@@]34[C@H](CC[C@@]3(C)[C@@]4(O)CC[C@H]4Cc5c([nH]c6ccc7c(c56)C[C@@H]5[C@@H](C7=O)C(C)(C)OC5(C)C)[C@@]43C)O[C@@H]2C(C)(C)O1 [lolitrem B],composite gait scores over the same time course,"[1]; Group 2 sheep, untreated intoxicated, p=0.05",increase
same,"animals falling, no improvement over the same time period","[1]; positive control sheep, toxic feed, not treated with potassium bromide",7/7
same,time to falling,[1]; printed as Group 3 Day 2,59.0 ± 23.50 s
same,time to falling,[1]; printed as Group 3 Day 3,51.52 ± 20.23 s
same,animals progressing to falling over the same timeframe (22 days),"[1]; sheep, Groups 2 and 3, toxic feed",5
same,"Day 1: Day 3 tremor intensity ratio, median","[2]; Group 2 sheep, no treatment",2.03
same,time from Type 1 to Type 2 gait changes,[3]; intoxicated sheep,approximately 9 days
same,Menace reflex,[3]; lolitrem B intoxicated sheep,either lost or reduced
same,pupillary light reflex,[3]; lolitrem B intoxicated sheep,normal
same,"Ventral strabismus, animals affected","[3]; sheep, Group 2 (toxin only)",9/9
same,"Altered stance, mean number of days to onset (+/−s.e.m.)",[3]; [7],11.78(+/−2.58) days
same,"Altered stance, number of animals affected",[3]; [7],9/9
same,"Fine tremor, mean number of days to onset (+/−s.e.m.)",[3]; [7],8.22(+/−2.58) days
same,"Fine tremor, number of animals affected",[3]; [7],9/9
same,"First clinical signs, mean number of days to onset (+/−s.e.m.)",[3]; [7],7.56(+/−2.06) days
same,"First clinical signs, number of animals affected",[3]; [7],9/9
same,"Major body clonus, mean number of days to onset (+/−s.e.m.)",[3]; [7],17.33(+/−3.51) days
same,"Major body clonus, number of animals affected",[3]; [7],3/9
same,"Ventral strabismus, animals affected","[3]; sheep, Group 3 (toxin, acute KBr on day of falling)",7/9
same,"Ventral strabismus, animals affected","[3]; sheep, Group 4 (toxin plus prophylactic KBr)",6
